Experiments:
SW620 [1] = test: cell viability relative to lowest-dose well (resazurin, 96 h); higher = more viable; conditions: RPMI + 10% FBS
How it was run: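 In 384-well plates, 50 µl RPMI with 10% FBS plus a metabolite supplement received 500 HCT116 or 1,000 SW620 cells per well. Dilution series of compounds, taken from 10 mM DMSO stocks, were added and the plates kept 96 h at 37 °C, 5% CO2. Viability, reported as percent of the lowest-dose well across independent replicate cultures, was measured as resazurin-to-resorufin conversion by fluorescence at 595 nm. Viability was read by resazurin-to-resorufin conversion and normalised to the lowest-dose vehicle well (=100%).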

SW620 [2] = test: EC50 for viability (resazurin, 96 h); conditions: RPMI+GlutaMAX (10% FBS, 1% P/S)
HCT116 = test: EC50 for viability (resazurin, 96 h); conditions: RPMI+GlutaMAX (10% FBS, 1% P/S)

Cc1[nH]nc2c1C(c1cc(CO)cc(-c3ccccc3)c1)(C(C)C)C(C#N)=C(N)O2 (stereo unspecified) [SHIN1]
cell viability [%], SW620 [1]
Conditions | metabolite supplement: 1mM sodium formate | metabolite supplement: 50uM thymidine | metabolite supplement: 50uM thymidine + 1mM sodium formate | metabolite supplement: 50uM thymidine + 250uM hypoxanthine | metabolite supplement: 250uM hypoxanthine | metabolite supplement: vehicle
0.001 µM | 100 | 100 | 100 | 100 | 100 | 100
0.01 µM | 99.57 | 98.9 | 102 | 103 | 102 | 100
0.0233 µM | 98.7 | 99.2 | 102 | 103 | 96.7 | 95
0.0541 µM | 98.5 | 102 | 104 | 103 | 101 | 98.63
0.126 µM | 97.4 | 102 | 104 | 103 | 101 | 97.1
0.293 µM | 96.93 | 99.6 | 101 | 105 | 98.8 | 95
0.682 µM | 95.3 | 96 | 103 | 104 | 98.8 | 88.6
1.59 µM | 94.8 | 85.5 | 100 | 108 | 98.8 | 82.9
3.69 µM | 92.3 | 75 | 98.1 | 104 | 96.4 | 72.3
8.6 µM | 89.6 | 69.3 | 95.2 | 102 | 93.9 | 68
20 µM | 78.2 | 66.5 | 83.8 | 90.8 | 84.8 | 66

SW620 [2]
Conditions | EC50 for viability [µM]
metabolite supplement: Hypoxanthine | > 10
metabolite supplement: Sodium Formate | > 10
metabolite supplement: Thymidine | 1.88
metabolite supplement: Thymidine + Hypoxanthine | > 10
metabolite supplement: Thymidine + Sodium Formate | > 10

O=c1[nH]cc(F)c(=O)[nH]1 [5-fluorouracil]
cell viability [%], SW620 [1]
Conditions | metabolite supplement: 50uM thymidine | metabolite supplement: 50uM thymidine + 250uM hypoxanthine | metabolite supplement: 250uM hypoxanthine | metabolite supplement: vehicle
0.0001 M | 6.17 | 8.1 | 8.23 | 7.07
0.001 µM | 100 | 100 | 100 | 100
0.01 µM | 103 | 99.7 | 103 | 104
0.0278 µM | 99.6 | 99.4 | 102 | 101
0.0774 µM | 97.9 | 101 | 98 | 102
0.215 µM | 94.8 | 99.9 | 99.2 | 100
0.599 µM | 93.3 | 97.1 | 101 | 99.9
1.67 µM | 77.5 | 87.9 | 92 | 84.1
4.64 µM | 52.2 | 65.6 | 66.7 | 56.8
12.9 µM | 26.5 | 37 | 38.5 | 30.8
35.9 µM | 11.9 | 16 | 16.8 | 13.2

EC50 for viability [µM]
Conditions | metabolite supplement: Folic acid | metabolite supplement: Folinic acid | metabolite supplement: Hypoxanthine | metabolite supplement: Thymidine | metabolite supplement: Thymidine + Folic acid | metabolite supplement: Thymidine + Folinic acid | metabolite supplement: Thymidine + Hypoxanthine | metabolite supplement: Vehicle
HCT116 | – | – | 3.08 | 2.22 | – | – | 3.29 | –
SW620 [2] | 4.72 | 4.28 | 7.63 | 4.39 | 4.5 | 4.32 | 7.42 | 5.04
